Laboratory results as given in PubChem BioAssay (NCI).
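Grown in 96-well plates, cells were treated for 48 hours with each compound at five concentrations. Insufficient inhibition: endpoint recorded as highest concentration tested. TGI: total growth inhibition.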

Tests used:
Experiment in all cases: NCI tumour cell line growth inhibition, 48 h
UO-31 renal = test system: UO-31 renal
CAKI-1 renal = test system: CAKI-1 renal
PC-3 prostate = test system: PC-3 prostate
MOLT-4 leukemia = test system: MOLT-4 leukemia
DU-145 prostate = test system: DU-145 prostate
NCI-H226 lung = test system: NCI-H226 lung
HOP-92 NSCLC = test system: HOP-92 NSCLC
SW-620 colon = test system: SW-620 colon
HT29 colon = test system: HT29 colon
OVCAR-8 ovarian = test system: OVCAR-8 ovarian
HOP-62 NSCLC = test system: HOP-62 NSCLC
HCC-2998 colon = test system: HCC-2998 colon
SK-MEL-2 melanoma = test system: SK-MEL-2 melanoma
HL-60(TB) leukemia = test system: HL-60(TB) leukemia
HS 578T breast = test system: HS 578T breast
OVCAR-3 ovarian = test system: OVCAR-3 ovarian
SR leukemia = test system: SR leukemia
SNB-19 CNS = test system: SNB-19 CNS
SF-295 CNS = test system: SF-295 CNS
COLO 205 colon = test system: COLO 205 colon
NCI-H460 lung = test system: NCI-H460 lung
MDA-MB-231 breast = test system: MDA-MB-231 breast
OVCAR-4 ovarian = test system: OVCAR-4 ovarian
SN12C renal = test system: SN12C renal
MALME-3M melanoma = test system: MALME-3M melanoma
K-562 leukemia = test system: K-562 leukemia
MCF7 breast = test system: MCF7 breast
OVCAR-5 ovarian = test system: OVCAR-5 ovarian
UACC-62 melanoma = test system: UACC-62 melanoma
A549 NSCLC = test system: A549 NSCLC
TK-10 renal = test system: TK-10 renal
MDA-MB-435 = test system: MDA-MB-435
NCI-H23 lung = test system: NCI-H23 lung
KM12 colon = test system: KM12 colon
SF-268 CNS = test system: SF-268 CNS
LOX IMVI melanoma = test system: LOX IMVI melanoma
SNB-75 CNS = test system: SNB-75 CNS
SK-OV-3 ovarian = test system: SK-OV-3 ovarian
T-47D breast = test system: T-47D breast
BT-549 breast = test system: BT-549 breast
RXF 393 renal = test system: RXF 393 renal
EKVX NSCLC = test system: EKVX NSCLC
ACHN renal = test system: ACHN renal
HCT-15 colon = test system: HCT-15 colon
UACC-257 melanoma = test system: UACC-257 melanoma
RPMI-8226 leukemia = test system: RPMI-8226 leukemia
SF-539 CNS = test system: SF-539 CNS
CCRF-CEM leukemia = test system: CCRF-CEM leukemia
M14 melanoma = test system: M14 melanoma
NCI/ADR-RES ovarian = test system: NCI/ADR-RES ovarian
SK-MEL-5 melanoma = test system: SK-MEL-5 melanoma
786-0 renal = test system: 786-0 renal
NCI-H522 lung = test system: NCI-H522 lung
A498 renal = test system: A498 renal
IGROV1 ovarian = test system: IGROV1 ovarian
HCT-116 colon = test system: HCT-116 colon
U251 CNS = test system: U251 CNS
SK-MEL-28 melanoma = test system: SK-MEL-28 melanoma
MDA-N = test system: MDA-N

Question: Which TGI (UO-31 renal) does the source give for CCC(=O)c1cc(C(=O)C(=S)SC)cc(C(=O)C(=S)SC)c1 here?
Answer: Its TGI is > 100 µM.

Question: And the TGI (CAKI-1 renal)?
Answer: The TGI was > 100 µM.

Question: What about the TGI (PC-3 prostate) of the same compound?
Answer: The TGI was > 100 µM.

Question: What about the TGI (MOLT-4 leukemia) of the same compound?
Answer: Its TGI is > 63.4 µM.

Question: And the TGI (DU-145 prostate)?
Answer: Its TGI is > 100 µM.

Question: And the TGI (NCI-H226 lung)?
Answer: Its TGI is > 100 µM.

Question: What about the TGI (HOP-92 NSCLC) of the same compound?
Answer: The TGI was > 100 µM.

Question: And the TGI (SW-620 colon)?
Answer: Its TGI is > 100 µM.

Question: What about the TGI (HT29 colon) of the same compound?
Answer: Its TGI is > 100 µM.

Question: What about the TGI (OVCAR-8 ovarian) of the same compound?
Answer: Its TGI is > 100 µM.

Question: And the TGI (HOP-62 NSCLC)?
Answer: The TGI was > 100 µM.

Question: And the TGI (HCC-2998 colon)?
Answer: Its TGI is > 100 µM.

Question: What about the TGI (SK-MEL-2 melanoma) of the same compound?
Answer: Its TGI is > 100 µM.

Question: And the TGI (HL-60(TB) leukemia)?
Answer: The TGI was > 72.6 µM.

Question: And the TGI (HS 578T breast)?
Answer: Its TGI is > 100 µM.

Question: What about the TGI (OVCAR-3 ovarian) of the same compound?
Answer: The TGI was > 100 µM.

Question: What about the TGI (SR leukemia) of the same compound?
Answer: Its TGI is > 100 µM.

Question: What about the TGI (SNB-19 CNS) of the same compound?
Answer: The TGI was > 100 µM.

Question: And the TGI (SF-295 CNS)?
Answer: The TGI was > 100 µM.

Question: And the TGI (COLO 205 colon)?
Answer: Its TGI is > 100 µM.

Question: What about the TGI (NCI-H460 lung) of the same compound?
Answer: The TGI was > 100 µM.

Question: What about the TGI (MDA-MB-231 breast) of the same compound?
Answer: The TGI was > 100 µM.

Question: What about the TGI (OVCAR-4 ovarian) of the same compound?
Answer: Its TGI is > 100 µM.

Question: And the TGI (SN12C renal)?
Answer: Its TGI is > 100 µM.

Question: What about the TGI (MALME-3M melanoma) of the same compound?
Answer: Its TGI is > 100 µM.

Question: And the TGI (K-562 leukemia)?
Answer: The TGI was > 100 µM.

Question: And the TGI (MCF7 breast)?
Answer: Its TGI is > 100 µM.

Question: And the TGI (OVCAR-5 ovarian)?
Answer: The TGI was > 100 µM.

Question: And the TGI (UACC-62 melanoma)?
Answer: Its TGI is > 100 µM.

Question: And the TGI (A549 NSCLC)?
Answer: The TGI was > 100 µM.

Question: What about the TGI (TK-10 renal) of the same compound?
Answer: Its TGI is > 100 µM.

Question: What about the TGI (MDA-MB-435) of the same compound?
Answer: Its TGI is > 100 µM.

Question: And the TGI (NCI-H23 lung)?
Answer: The TGI was > 100 µM.

Question: What about the TGI (KM12 colon) of the same compound?
Answer: Its TGI is > 100 µM.

Question: And the TGI (SF-268 CNS)?
Answer: The TGI was > 100 µM.

Question: And the TGI (LOX IMVI melanoma)?
Answer: Its TGI is > 100 µM.

Question: And the TGI (SNB-75 CNS)?
Answer: The TGI was > 100 µM.

Question: And the TGI (SK-OV-3 ovarian)?
Answer: Its TGI is > 100 µM.

Question: What about the TGI (T-47D breast) of the same compound?
Answer: The TGI was > 100 µM.

Question: And the TGI (BT-549 breast)?
Answer: Its TGI is > 100 µM.

Question: What about the TGI (RXF 393 renal) of the same compound?
Answer: Its TGI is > 100 µM.

Question: And the TGI (EKVX NSCLC)?
Answer: The TGI was > 100 µM.

Question: What about the TGI (ACHN renal) of the same compound?
Answer: The TGI was > 100 µM.

Question: And the TGI (HCT-15 colon)?
Answer: The TGI was > 100 µM.

Question: What about the TGI (UACC-257 melanoma) of the same compound?
Answer: Its TGI is > 100 µM.

Question: What about the TGI (RPMI-8226 leukemia) of the same compound?
Answer: Its TGI is > 100 µM.

Question: What about the TGI (SF-539 CNS) of the same compound?
Answer: The TGI was > 100 µM.

Question: And the TGI (CCRF-CEM leukemia)?
Answer: Its TGI is > 24.6 µM.

Question: And the TGI (M14 melanoma)?
Answer: Its TGI is > 100 µM.

Question: And the TGI (NCI/ADR-RES ovarian)?
Answer: Its TGI is > 100 µM.

Question: What about the TGI (SK-MEL-5 melanoma) of the same compound?
Answer: Its TGI is > 100 µM.

Question: What about the TGI (786-0 renal) of the same compound?
Answer: The TGI was > 100 µM.

Question: What about the TGI (NCI-H522 lung) of the same compound?
Answer: Its TGI is > 100 µM.

Question: And the TGI (A498 renal)?
Answer: The TGI was > 100 µM.

Question: And the TGI (IGROV1 ovarian)?
Answer: Its TGI is > 100 µM.

Question: What about the TGI (HCT-116 colon) of the same compound?
Answer: Its TGI is > 100 µM.

Question: What about the TGI (U251 CNS) of the same compound?
Answer: The TGI was > 100 µM.

Question: What about the TGI (SK-MEL-28 melanoma) of the same compound?
Answer: The TGI was > 100 µM.

Question: What about the TGI (MDA-N) of the same compound?
Answer: The TGI was > 100 µM.
